{"source": "patent US7799757B2", "about": "“Analogs of parathyroid hormone and PTH-related protein as bone anabolic agents” (priority 2002, dated 2010)", "key": {"[1]": {"target": "T1, recombinant hPTH1-receptor (Homo sapiens, UniProt Q03431)", "T1 construct": "expressed in transfected cells", "T1 sequence (Q03431 27-593)": "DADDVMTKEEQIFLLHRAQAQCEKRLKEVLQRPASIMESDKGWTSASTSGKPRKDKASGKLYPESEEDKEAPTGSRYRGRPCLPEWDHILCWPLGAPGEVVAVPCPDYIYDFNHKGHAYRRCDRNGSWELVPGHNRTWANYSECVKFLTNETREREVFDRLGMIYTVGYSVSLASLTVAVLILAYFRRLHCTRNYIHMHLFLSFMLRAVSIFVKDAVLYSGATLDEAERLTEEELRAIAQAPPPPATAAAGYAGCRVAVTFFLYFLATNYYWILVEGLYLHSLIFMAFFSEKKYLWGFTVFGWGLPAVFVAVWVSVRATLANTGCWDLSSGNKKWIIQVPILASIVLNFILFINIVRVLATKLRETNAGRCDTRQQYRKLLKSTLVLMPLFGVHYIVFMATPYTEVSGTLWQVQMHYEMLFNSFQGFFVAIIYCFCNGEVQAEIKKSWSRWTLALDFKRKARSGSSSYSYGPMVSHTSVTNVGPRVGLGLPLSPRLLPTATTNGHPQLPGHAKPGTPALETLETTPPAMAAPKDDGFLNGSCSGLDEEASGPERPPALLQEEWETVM", "assay": "Stimulation of adenylyl cyclase activity in HEK293/C21 cells", "assay_type": "cell-based", "conditions": "1 mM IBMX, 5 min incubation, read-out: EC50 (half maximal stimulation of adenylate cyclase)", "method": "(§1) Human embryonic kidney (HEK293) cells, stably transfected with recombinant hPTH1-receptor (HEK293/C21 cell line, ˜400,000 receptors/cell) (Pines, M., Adams, A. E., Stueckle, S., Bessalle, R., Rashti-Behar, V., Chorev, M., Rosenblatt, M., and Suva, L. J. Endocrinology 1994, 135, 1713-1716), were maintained in D-MEM medium supplemented with 10% fetal bovine serum and […] glutamine at 37° C. in a humidified atmosphere of 95% air/5% CO2. The medium was changed every 3-4 days, and the cells were subcultured every week. Ligand stimulated adenylyl cyclase activity and radioreceptor competition binding assays were performed on confluent cultures, 1-3 days after a change of medium.\nStimulation of adenylyl cyclase activity by the PTH(1-34) analogues was assayed in stably transfected HEK293/C21 as described before (Nakamoto, C., Behar, V., Chin, K. R., Adams, A. E.; Suva, L. J.; Rosenblatt, M.; Chorev, M. Biochemistry 1995, 34, 10546-10552.). Shortly, cells were grown to confluence in 24-well culture dishes. They were then incubated with 0.5 μCi [^3H]adenine in fresh PBS supplemented medium at 37° C. for 2 h and further treated with 1 mM 3-isobutyl-1-methylxantine (IBMX) in fresh medium for 15 min at 37° C. […] Radioactivity was measured in a liquid scintillation counter (Beciman LS6000IC liquid scintillation counter, Downers Grove, Ill.)."}, "[2]": {"target": "T1, recombinant hPTH1-receptor", "assay": "Radioreceptor competition binding, 125I-PTH(1-34), HEK293/C21 cells", "conditions": "125I-PTH(1-34) ~0.1 nM, 2 h at room temperature", "method": "as §1\n[Nle^8,18,Nal^23,Tyr^34]bPTH(1-34)-NH2 was radioiodinated and the crude material was purified as previously described (Roubini, E., Duong, L. T., Gibbons, S. W., Leu, C. T., Caulfield, M. P., Chorev, M., and Rosenblatt, M. Biochemistry 1992, 31, 4026-4033). […] The pure mono-radioiodinated peptide was isolated on an analytical RP-HPLC Vydac Protein C18 column (The Separation Group, Hesperia, Calif.) employing a linear gradient of 36-42% B in A for 30 min (A, 0.1% TFA in water; B, 0.1% TFA in acetonitrile) at a flow rate of 1 mL/min, and monitored at 220 nm. […]"}}, "note": "Non-standard residues stand in square brackets, D forms with d. Residues, ends and D or L forms follow the SMILES beside them. 2Nal = N[C@@H](Cc1ccc2ccccc2c1)C(=O)O; Nle = CCCC[C@H](N)C(=O)O; βAla = NCCC(=O)O"}
{"smiles": "CCCC[C@H](NC(=O)[C@H](Cc1ccccc1)NC(=O)[C@H](CCC(N)=O)NC(=O)[C@@H](NC(=O)[C@H](CCC(=O)O)NC(=O)[C@H](CO)NC(=O)[C@@H](NC(=O)[C@H](C)N)C(C)C)[C@@H](C)CC)C(=O)N[C@@H](Cc1c[nH]cn1)C(=O)N[C@@H](CC(N)=O)C(=O)N[C@@H](CC(C)C)C(=O)NCC(=O)N[C@@H](CCCCN)C(=O)N[C@@H](Cc1c[nH]cn1)C(=O)N[C@@H](CC(C)C)C(=O)N[C@@H](CO)C(=O)N[C@@H](CO)C(=O)NCCC(=O)NCCC(=O)N[C@@H](CCCNC(=N)N)C(=O)N[C@H](C(=O)N[C@@H](CCC(=O)O)C(=O)N[C@@H](Cc1ccc2ccccc2c1)C(=O)N[C@@H](CC(C)C)C(=O)N[C@@H](CCCNC(=N)N)C(=O)N[C@@H](CCCCN)C(=O)N[C@@H](CCCCN)C(=O)N[C@@H](CC(C)C)C(=O)N[C@@H](CCC(N)=O)C(=O)N[C@@H](CC(=O)O)C(=O)N[C@H](C(=O)N[C@@H](Cc1c[nH]cn1)C(=O)N[C@@H](CC(N)=O)C(=O)N[C@@H](Cc1ccc(O)cc1)C(N)=O)C(C)C)C(C)C", "note": "[SEQ ID NO: 14, [Nle^8,β-Ala^18,19,Nal^23,Tyr^34]bPTH(1–34)NH2] (H-AVSEIQF[Nle]HNLGKHLSS[βAla][βAla]RVE[2Nal]LRKKLQDVHNY-NH2; N-terminus assumed)", "values": [{"measurement": "EC50", "setting": "[1]", "value": "13.82 ± 0.02", "unit": "nM"}, {"measurement": "IC50", "setting": "[2]", "value": "> 1000", "unit": "nM"}]}
